The values below come from PubChem BioAssay AID248 (DTP/NCI, 2004).

For this test, the system named is L1210 leukemia ip in BDF1 mice, survival T/C. Kind of test: NCI In Vivo Anticancer Drug Screen. Data for tumor model L1210 Leukemia (intraperitoneal) in B6D2F1 (BDF1) mice. The following applies: endpoint: mean survival time, higher = longer survival. In outline: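 Antitumor effect is assessed in tumor-bearing animals. Survival in the compound arm is compared with a vehicle-dosed control arm and expressed as their quotient.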

Where [1] appears, read: dose: 100.0 mg/kg/injection, schedule: Q01DX009 (ip), vehicle: saline.
The mark [2] stands for this setting: dose: 100.0 mg/kg/injection, schedule: Q04DX003 (ip), vehicle: saline.
Where [3] appears, read: dose: 200.0 mg/kg/injection, schedule: Q01DX009 (ip), vehicle: saline.
The mark [4] stands for this setting: dose: 200.0 mg/kg/injection, schedule: Q04DX003 (ip), vehicle: saline.
[5] abbreviates: dose: 400.0 mg/kg/injection, schedule: Q01DX009 (ip), vehicle: saline.
The mark [6] stands for this setting: dose: 400.0 mg/kg/injection, schedule: Q04DX003 (ip), vehicle: saline.
Where [7] appears, read: dose: 100.0 mg/kg/injection, schedule: Q04DX003 (ip), vehicle: Klucel (hydroxypropylcellulose) (HPC).
[8] abbreviates: dose: 100.0 mg/kg/injection, schedule: Q01DX009 (ip), vehicle: saline with Tween-80.
The mark [9] stands for this setting: dose: 200.0 mg/kg/injection, schedule: Q01DX009 (ip), vehicle: saline with Tween-80.
[10] abbreviates: dose: 400.0 mg/kg/injection, schedule: Q01DX009 (ip), vehicle: saline with Tween-80.

Values joined by “and” are separate entries in the source; they are usually repeats but may differ in a detail not shown here. Equal entries are not always repeated. Toxic doses and inconclusive results are not listed.

Take `CC(=O)OCCCC/C(=C/c1cc2ccccc2c2ccccc12)[N+](=O)[O-]`: the T/C was 100 % of control (dose: 100.0 mg/kg/injection, schedule: Q01DX009 (ip), vehicle: carboxymethylcellulose (CMC)); 104 % of control (dose: 266.0 mg/kg/injection, schedule: Q01DX009 (ip), vehicle: carboxymethylcellulose (CMC)); 104 % of control (dose: 400.0 mg/kg/injection, schedule: Q01DX009 (ip), vehicle: carboxymethylcellulose (CMC)); 100 % of control (dose: 600.0 mg/kg/injection, schedule: Q01DX009 (ip), vehicle: carboxymethylcellulose (CMC)).
Consider `CC(CCC(=O)O)(c1cc(Cl)c(O)c(Cl)c1)c1cc(Cl)c(O)c(Cl)c1`, for which the T/C reads like this: (dose: 100.0 mg/kg/injection, schedule: Q01DX009 (ip), vehicle: gum acacia) 95 % of control; (dose: 100.0 mg/kg/injection, schedule: Q04DX003 (ip), vehicle: gum acacia) 100 % of control; (dose: 200.0 mg/kg/injection, schedule: Q01DX009 (ip), vehicle: gum acacia) 103 % of control; (dose: 200.0 mg/kg/injection, schedule: Q04DX003 (ip), vehicle: gum acacia) 92 % of control; (dose: 400.0 mg/kg/injection, schedule: Q04DX003 (ip), vehicle: gum acacia) 96 % of control.
In the case of `CCOC(=O)Nc1cc(NCC(O)CN(C)c2ccccc2)c([N+](=O)[O-])c(N)n1` (stereo unspecified), the T/C is, setting by setting: (dose: 100.0 mg/kg/injection, schedule: Q01DX001 (ip), vehicle: carboxymethylcellulose (CMC)) 95 % of control; (dose: 200.0 mg/kg/injection, schedule: Q01DX001 (ip), vehicle: carboxymethylcellulose (CMC)) 95 % of control; (dose: 400.0 mg/kg/injection, schedule: Q01DX001 (ip), vehicle: carboxymethylcellulose (CMC)) 92 % of control.
As to `CC(=O)OCC(=O)[C@@]1(O)CC[C@H]2[C@@H]3C[C@H](C)C4=CC(=O)C=C[C@]4(C)[C@@]3(F)[C@@H](O)C[C@@]21C`, the T/C by setting is: under setting [1], 103 % of control; under setting [2], 94 % of control; under setting [3], 92 % of control; under setting [4], 111 % of control; under setting [5], 108 % of control; under setting [6], 103 % of control.
On to `C[P+](C)(Cc1ccc([N+](=O)[O-])cc1)c1ccccc1`, for which the T/C is, setting by setting: (dose: 12.0 mg/kg/injection, schedule: Q04DX003 (ip), vehicle: saline) 98 % of control; (dose: 25.0 mg/kg/injection, schedule: Q01DX009 (ip), vehicle: saline) 105 % of control; (dose: 25.0 mg/kg/injection, schedule: Q04DX003 (ip), vehicle: saline) 104 % of control; (dose: 50.0 mg/kg/injection, schedule: Q01DX009 (ip), vehicle: saline) 109 % of control; (dose: 50.0 mg/kg/injection, schedule: Q04DX003 (ip), vehicle: saline) 104 % of control.
With `C=CCNC(=S)Nc1cccc(C(F)(F)F)c1`, the T/C is 104 % of control (dose: 50.0 mg/kg/injection, schedule: Q01DX001 (sc), vehicle: carboxymethylcellulose (CMC)); 101 % of control (dose: 100.0 mg/kg/injection, schedule: Q01DX001 (sc), vehicle: carboxymethylcellulose (CMC)); 104 % of control (dose: 200.0 mg/kg/injection, schedule: Q01DX001 (sc), vehicle: carboxymethylcellulose (CMC)); 114 % of control (dose: 400.0 mg/kg/injection, schedule: Q01DX001 (sc), vehicle: carboxymethylcellulose (CMC)).
With `Cc1noc(-c2ccc([N+](=O)[O-])o2)n1`, the T/C (dose: 100.0 mg/kg/injection, schedule: Q04DX002 (ip), vehicle: Klucel (hydroxypropylcellulose) (HPC)) was 94 % of control and the T/C (dose: 200.0 mg/kg/injection, schedule: Q04DX002 (ip), vehicle: Klucel (hydroxypropylcellulose) (HPC)) was 105 % of control.
As for `CCOC(=O)C12CCC=C1N(S(=O)(=O)N(C)C)c1ccc(NS(=O)(=O)N(C)C)cc12` (stereo unspecified), the T/C by setting is: (dose: 45.0 mg/kg/injection, schedule: Q04DX003 (ip), vehicle: Klucel (hydroxypropylcellulose) (HPC)) 105 % of control; (dose: 65.0 mg/kg/injection, schedule: Q04DX003 (ip), vehicle: Klucel (hydroxypropylcellulose) (HPC)) 105 % of control; (dose: 100.0 mg/kg/injection, schedule: Q01DX001 (ip), vehicle: Klucel (hydroxypropylcellulose) (HPC)) 97 % of control; under setting [7], 105 % of control and 120 % of control; (dose: 200.0 mg/kg/injection, schedule: Q01DX001 (ip), vehicle: Klucel (hydroxypropylcellulose) (HPC)) 104 % of control; (dose: 200.0 mg/kg/injection, schedule: Q04DX003 (ip), vehicle: Klucel (hydroxypropylcellulose) (HPC)) 89 % of control. The T/C runs as follows: (dose: 400.0 mg/kg/injection, schedule: Q01DX001 (ip), vehicle: Klucel (hydroxypropylcellulose) (HPC)) 98 % of control; (dose: 400.0 mg/kg/injection, schedule: Q04DX003 (ip), vehicle: Klucel (hydroxypropylcellulose) (HPC)) 97 % of control.
As to `CCN(C)CCN(C)CC`, the T/C by setting is: under setting [1], 102 % of control; under setting [2], 97 % of control; under setting [3], 104 % of control; under setting [4], 99 % of control; under setting [5], 106 % of control; under setting [6], 99 % of control.
For the compound `CCN(CC)C(=O)Nc1cccc(OC(=O)N(C)C)c1`, the T/C under setting [8] is 87 % of control and the T/C under setting [9] was 89 % of control.
As to `CCOC(=O)c1ccc(NC(=S)NC(=O)c2ccc(Cl)cc2Cl)cc1`, the T/C is 88 % of control under setting [9] and 88 % of control under setting [10].
On to `O=S(=O)(Oc1ccc(-c2ccccc2)cc1)C1CC1c1ccccc1` (stereo unspecified), for which the T/C was 93 % of control (dose: 100.0 mg/kg/injection, schedule: Q01DX001 (ip), vehicle: saline); 93 % of control under setting [2]; 97 % of control (dose: 200.0 mg/kg/injection, schedule: Q01DX001 (ip), vehicle: saline); 96 % of control under setting [4]; 90 % of control (dose: 400.0 mg/kg/injection, schedule: Q01DX001 (ip), vehicle: saline); 91 % of control under setting [6].
For the compound `CCCOP(=O)(CCl)OCCC`, the T/C runs as follows: under setting [2], 101 % of control; under setting [4], 104 % of control; under setting [6], 101 % of control.
On to `Cc1ccc(CNc2ccc(F)cc2)cc1`, for which the T/C by setting is: under setting [8], 94 % of control; (dose: 100.0 mg/kg/injection, schedule: Q04DX003 (ip), vehicle: saline with Tween-80) 92 % of control; under setting [9], 100 % of control; (dose: 200.0 mg/kg/injection, schedule: Q04DX003 (ip), vehicle: saline with Tween-80) 102 % of control; under setting [10], 97 % of control; (dose: 400.0 mg/kg/injection, schedule: Q04DX003 (ip), vehicle: saline with Tween-80) 113 % of control.
For `CC1OC1C(=O)Sc1ccccc1` (stereo unspecified), the T/C is, setting by setting: (dose: 25.0 mg/kg/injection, schedule: Q04DX003 (ip), vehicle: Klucel (hydroxypropylcellulose) (HPC)) 100 % of control; (dose: 50.0 mg/kg/injection, schedule: Q04DX003 (ip), vehicle: Klucel (hydroxypropylcellulose) (HPC)) 103 % of control; under setting [7], 93 % of control and 86 % of control.
For `O=C(Nc1ccc(C2=NCCCN2)cc1)c1ccc(C(=O)Nc2ccc(C3=NCCCN3)cc2)nc1`, the T/C (dose: 1.5 mg/kg/injection, schedule: Q01DX Z (ip), vehicle: water) is 122 % of control; the T/C (dose: 3.0 mg/kg/injection, schedule: Q01DX Z (ip), vehicle: water) was 114 % of control; the T/C (dose: 3.0 mg/kg/injection, schedule: Q01DX Z (oral), vehicle: water) is 97 % of control; the T/C (dose: 6.0 mg/kg/injection, schedule: Q01DX Z (ip), vehicle: water) was 172 % of control; the T/C (dose: 6.25 mg/kg/injection, schedule: Q01DX Z (oral), vehicle: water) is 95 % of control; the T/C (dose: 7.5 mg/kg/injection, schedule: Q01DX001 (ip), vehicle: water) is 118 % of control. In addition, the T/C was 89 % of control (dose: 12.5 mg/kg/injection, schedule: Q01DX Z (oral), vehicle: water) and 91 % of control (dose: 25.0 mg/kg/injection, schedule: Q01DX Z (oral), vehicle: water).
In the case of `CCN(CCOC(=O)Nc1ccc(F)cc1)c1ccccc1`, the T/C runs as follows: (dose: 100.0 mg/kg/injection, schedule: Q01DX009 (ip), vehicle: Klucel (hydroxypropylcellulose) (HPC)) 98 % of control; (dose: 200.0 mg/kg/injection, schedule: Q01DX009 (ip), vehicle: Klucel (hydroxypropylcellulose) (HPC)) 98 % of control; (dose: 400.0 mg/kg/injection, schedule: Q01DX009 (ip), vehicle: Klucel (hydroxypropylcellulose) (HPC)) 110 % of control.
